Test results reported in article PMC9661477, “New Dual P-Glycoprotein (P-gp) and Human Carbonic Anhydrase XII (hCA XII) Inhibitors as Multidrug Resistance (MDR) Reversers in Cancer Cells” (Journal of Medicinal Chemistry, 2022).

How the values were obtained:
HT29/DOX cells [1] = experiment: cells; conditions: Homo sapiens, HT-29, 72 h, read-out: IC50 of doxorubicin
[2] = tested on: hCA XII KO A549/DOX cells; experiment: doxorubicin cytotoxicity enhancement assay in hCA XII KO A549/DOX cells; type: cell-based; conditions: Homo sapiens
A549/DOX cells [3] = experiment: kinetic parameters of doxorubicin efflux in A549/DOX cells; type: cell-based, human; conditions: doxorubicin alone
Procedure: (§1) Cells were incubated for 3 h with 5 μM doxorubicin, alone or with the selected compounds, washed with PBS, trypsinized, centrifuged at 13 000g for 5 min, and resuspended in 0.5 mL of 1/1 solution ethanol/0.3 N HCl. […] To calculate the kinetic parameters, cells were incubated for 20 min with increasing (0–100 μM) concentrations of doxorubicin, alone or with the indicated compounds, then analyzed for the intracellular concentration of doxorubicin. […] The difference in the doxorubicin concentration between the two series, expressed as nmol doxorubicin extruded/min/mg cell proteins, was plotted versus the initial drug concentration.[69] Values were fitted to the Michaelis–Menten equation to calculate Vmax and Km, using the Enzfitter software (Biosoft Corporation, Cambridge, United Kingdom).

P-gp KO A549/DOX cells = experiment: cells; conditions: Homo sapiens, A549, read-out: IC50 of doxorubicin
P-gp KO HT29/DOX cells = experiment: cells; conditions: Homo sapiens, HT-29, read-out: IC50 of doxorubicin
A549 cells = experiment: kinetic parameters of doxorubicin efflux in A549 cells; type: cell-based, human; conditions: doxorubicin alone
Procedure: as §1

HT29 cells [4] = experiment: kinetic parameters of doxorubicin efflux in HT29 cells; type: cell-based, human; conditions: doxorubicin alone
Procedure: as §1

[5] = tested on: hCA XII KO HT29/DOX cells; experiment: kinetic parameters of doxorubicin efflux in hCA XII KO HT29/DOX cells; type: cell-based, human; conditions: doxorubicin alone
Procedure: as §1

A549/DOX cells [6] = experiment: cells; conditions: Homo sapiens, A549, 72 h, read-out: IC50 of doxorubicin
[7] = tested on: hCA XII KO HT29/DOX cells; experiment: doxorubicin cytotoxicity enhancement assay in hCA XII KO HT29/DOX cells; type: cell-based; conditions: Homo sapiens, HT-29
HT29/DOX cells [8] = experiment: kinetic parameters of doxorubicin efflux in HT29/DOX cells; type: cell-based, human; conditions: doxorubicin alone
Procedure: as §1

HT29 cells [9] = experiment: doxorubicin cytotoxicity in HT29 cells; type: cell-based; conditions: Homo sapiens, HT-29, 72 h, MTT
Procedure: Human chemosensitive colon cancer HT29 cells, lung cancer A549 cells, not-transformed human colon epithelial EpiCoC cells, and lung epithelial BEAS-2B cells were purchased from ATCC (Manassas, VA). […] Cells were maintained in media supplemented with 10% v/v fetal bovine serum, 1% v/v penicillin–streptomycin, and 1% v/v L-glutamine. […] Knockout efficacy was evaluated by immunoblotting, as reported below.

[10] = tested on: hCA XII KO A549/DOX cells; experiment: kinetic parameters of doxorubicin efflux in hCA XII KO A549/DOX cells; type: cell-based, human; conditions: doxorubicin alone
Procedure: as §1

`COc1cccc2c1C(=O)c1c(O)c3c(c(O)c1C2=O)C[C@@](O)(C(=O)CO)C[C@@H]3O[C@H]1C[C@H](N)[C@H](O)[C@H](C)O1` [DOX, doxorubicin] gave an IC50 (HT29/DOX cells [1]) of 12000 ± 850 nM, an IC50 [2] of 5440 ± 1500 nM and a Km (A549/DOX cells [3]) of 0.45 ± 0.019 µM. The “Vmax of doxorubicin efflux” value (A549/DOX cells [3]) was 7.51 ± 0.31 µmol/min, the IC50 (P-gp KO A549/DOX cells) was 900 ± 13 nM and the IC50 (P-gp KO HT29/DOX cells) was 460 ± 13 nM. For the same compound, the Km (A549 cells) was 0.47 ± 0.017 µM, the “Vmax of doxorubicin efflux” value (A549 cells) was 2.35 ± 0.08 µmol/min and the Km (HT29 cells [4]) was 0.55 ± 0.028 µM. The “Vmax of doxorubicin efflux” value (HT29 cells [4]) was 3.21 ± 0.04 µmol/min, the Km [5] was 0.58 ± 0.03 µM and the “Vmax of doxorubicin efflux” value [5] was 5.47 ± 0.12 µmol/min. It also gave an IC50 (A549/DOX cells [6]) of 15500 ± 930 nM, an IC50 [7] of 1300 ± 60 nM and a Km (HT29/DOX cells [8]) of 0.54 ± 0.01 µM. For the same compound, the “Vmax of doxorubicin efflux” value (HT29/DOX cells [8]) was 8.10 ± 0.15 µmol/min, the IC50 (HT29 cells [9]) was 1380 ± 30 nM and the Km [10] was 0.55 ± 0.028 µM. For the same compound, the “Vmax of doxorubicin efflux” value [10] was 4.08 ± 0.32 µmol/min.
